According to ChEMBL document CHEMBL4265905, “Synthesis and biological evaluation of novel Jiyuan Oridonin A-1,2,3-triazole-azole derivatives as antiproliferative agents” (Eur J Med Chem, 2018):
pIC50: −log10 of the molar value. Calls of active or inactive are those of the source. The calls are words filed in the database; no cut-off is given here.

Legend:
SMMC-7721 [1] = assay: Induction of apoptosis in human SMMC7721 cells assessed as viable cells at 1 uM after 12 hrs by Annexin V-FITC/PI staining based flow cytometry (reference value: 95.4%); type: functional; settings: SMMC-7721, 12 h, read-out: Activity
SMMC-7721 [2] = assay: Induction of apoptosis in human SMMC7721 cells assessed as necrotic cells at 0.5 uM after 12 hrs by Annexin V-FITC/PI staining based flow cytometry (reference value: 0.8%); type: functional
SMMC-7721 [3] = assay: Cell cycle arrest in human SMMC7721 cells assessed as accumulation at S phase at 4 uM after 12 hrs by propidium iodide staining based flow cytometry (reference value: 36.98%); type: functional
SMMC-7721 [4] = assay: Cell cycle arrest in human SMMC7721 cells assessed as accumulation at S phase at 1 uM after 12 hrs by propidium iodide staining based flow cytometry (reference value: 36.98%); type: functional
L02 = assay: Cytotoxicity against human HL7702 cells up to 72 hrs by MTT assay; type: cell-based; settings: L02, 72 h
SMMC-7721 [5] = assay: Induction of apoptosis in human SMMC7721 cells assessed as early apoptotic cells at 0.5 uM after 12 hrs by Annexin V-FITC/PI staining based flow cytometry (reference value: 2.8%); type: functional
SMMC-7721 [6] = assay: Induction of apoptosis in human SMMC7721 cells assessed as late apoptotic cells at 2 uM after 12 hrs by Annexin V-FITC/PI staining based flow cytometry (reference value: 0.9%); type: functional
SMMC-7721 [7] = assay: Induction of apoptosis in human SMMC7721 cells assessed as late apoptotic cells at 1 uM after 12 hrs by Annexin V-FITC/PI staining based flow cytometry (reference value: 0.9%); type: functional
Homo sapiens [8] = species on record: Homo sapiens; assay: Inhibition of Wnt signaling pathway in human SMMC7721 cells assessed as reduction in beta-catenin expression level up to 2 uM after 48 hrs by Western blot analysis; type: cell-based
SMMC-7721 [9] = assay: Cell cycle arrest in human SMMC7721 cells assessed as accumulation at G2 phase at 1 uM after 12 hrs by propidium iodide staining based flow cytometry (reference value: 18.97%); type: functional
SMMC-7721 [10] = assay: Induction of apoptosis in human SMMC7721 cells assessed as viable cells at 0.5 uM after 12 hrs by Annexin V-FITC/PI staining based flow cytometry (reference value: 95.4%); type: functional; settings: SMMC-7721, 12 h, read-out: Activity
MCF7 = assay: Antiproliferative activity against human MCF7 cells after 72 hrs by MTT assay; type: functional, cell-based; settings: MCF7, 72 h
SMMC-7721 [11] = assay: Cell cycle arrest in human SMMC7721 cells assessed as accumulation at G1 phase at 4 uM after 12 hrs by propidium iodide staining based flow cytometry (reference value: 39.51%); type: functional
SMMC-7721 [12] = assay: Cell cycle arrest in human SMMC7721 cells assessed as accumulation at S phase at 2 uM after 12 hrs by propidium iodide staining based flow cytometry (reference value: 36.98%); type: functional
Homo sapiens [13] = species on record: Homo sapiens; assay: Inhibition of Wnt signaling pathway in human SMMC7721 cells assessed as reduction in Dvl2 expression level up to 2 uM after 48 hrs by Western blot analysis; type: cell-based
A549 = assay: Antiproliferative activity against human A549 cells after 72 hrs by MTT assay; type: functional, cell-based; settings: A549, 72 h
SMMC-7721 [14] = assay: Antiproliferative activity against human SMMC7721 cells after 72 hrs by MTT assay; type: functional, cell-based; settings: SMMC-7721, 72 h
SMMC-7721 [15] = assay: Induction of apoptosis in human SMMC7721 cells assessed as necrotic cells at 2 uM after 12 hrs by Annexin V-FITC/PI staining based flow cytometry (reference value: 0.8%); type: functional
SMMC-7721 [16] = assay: Induction of apoptosis in human SMMC7721 cells assessed as necrotic cells at 1 uM after 12 hrs by Annexin V-FITC/PI staining based flow cytometry (reference value: 0.8%); type: functional
SMMC-7721 [17] = assay: Cell cycle arrest in human SMMC7721 cells assessed as accumulation at G1 phase at 1 uM after 12 hrs by propidium iodide staining based flow cytometry (reference value: 39.51%); type: functional
Homo sapiens [18] = species on record: Homo sapiens; assay: Inhibition of Wnt signaling pathway in human SMMC7721 cells assessed as increase in APC expression level up to 2 uM after 48 hrs by Western blot analysis; type: cell-based
SMMC-7721 [19] = assay: Induction of apoptosis in human SMMC7721 cells assessed as viable cells at 2 uM after 12 hrs by Annexin V-FITC/PI staining based flow cytometry (reference value: 95.4%); type: functional; settings: SMMC-7721, 12 h, read-out: Activity
SMMC-7721 [20] = assay: Induction of apoptosis in human SMMC7721 cells assessed as early apoptotic cells at 1 uM after 12 hrs by Annexin V-FITC/PI staining based flow cytometry (reference value: 2.8%); type: functional
SMMC-7721 [21] = assay: Inhibition of cell migration in human SMMC7721 cells after 24 hrs by wound healing based inverted microscopic analysis; type: functional
SMMC-7721 [22] = assay: Inhibition of colony formation in human SMMC7721 cells assessed as colony formation efficiency at 2 uM after two weeks by crystal violet staining based assay; type: functional; parameters: scale not given: the % may be the effect or the level left
SMMC-7721 [23] = assay: Inhibition of colony formation in human SMMC7721 cells after two weeks by crystal violet staining based assay; type: functional, cell-based
SMMC-7721 [24] = assay: Cell cycle arrest in human SMMC7721 cells assessed as accumulation at G2 phase at 4 uM after 12 hrs by propidium iodide staining based flow cytometry (reference value: 18.97%); type: functional
Homo sapiens [25] = species on record: Homo sapiens; assay: Inhibition of Wnt signaling pathway in human SMMC7721 cells assessed as increase in GSK3beta phosphorylation level up to 2 uM after 48 hrs by Western blot analysis; type: cell-based
ECa-109 cell line = assay: Antiproliferative activity against human ECA109 cells after 72 hrs by MTT assay; type: functional, cell-based; settings: ECa-109, 72 h
SMMC-7721 [26] = assay: Cell cycle arrest in human SMMC7721 cells assessed as accumulation at G1 phase at 2 uM after 12 hrs by propidium iodide staining based flow cytometry (reference value: 39.51%); type: functional
MGC-803 = assay: Antiproliferative activity against human MGC803 cells after 72 hrs by MTT assay; type: functional, cell-based; settings: MGC-803, 72 h
SMMC-7721 [27] = assay: Induction of apoptosis in human SMMC7721 cells assessed as late apoptotic cells at 0.5 uM after 12 hrs by Annexin V-FITC/PI staining based flow cytometry (reference value: 0.9%); type: functional
PC-3 = assay: Antiproliferative activity against human PC3 cells after 72 hrs by MTT assay; type: functional, cell-based; settings: PC-3, 72 h
SMMC-7721 [28] = assay: Cell cycle arrest in human SMMC7721 cells assessed as accumulation at G2 phase at 2 uM after 12 hrs by propidium iodide staining based flow cytometry (reference value: 18.97%); type: functional
SMMC-7721 [29] = assay: Induction of apoptosis in human SMMC7721 cells assessed as early apoptotic cells at 2 uM after 12 hrs by Annexin V-FITC/PI staining based flow cytometry (reference value: 2.8%); type: functional

Question: With `C=C1C(=O)[C@]23[C@H](O)[C@H]1C[C@H](O)[C@H]2[C@]12CCCC(C)(C)[C@H]1C[C@H]3O[C@@H]2OCCCn1cc(CN2C(=O)S/C(=C/C)C2=O)nn1` as the molecule, how does the viability at 1 µM (SMMC-7721 [1]) read?
Answer: The viability at 1 µM was 79.3%.

Question: What about the Activity (SMMC-7721 [2]) of the same molecule?
Answer: Its Activity is 1.1%.

Question: And the Activity (SMMC-7721 [3])?
Answer: Its Activity is 22.27%.

Question: And the Activity (SMMC-7721 [4])?
Answer: The Activity was 13.84%.

Question: And the pIC50 (L02)?
Answer: Its pIC50 is 4.74.

Question: And the Activity (SMMC-7721 [5])?
Answer: Its Activity is 7.2%.

Question: What about the Activity (SMMC-7721 [6]) of the same molecule?
Answer: Its Activity is 2.5%.

Question: What about the Activity (SMMC-7721 [7]) of the same molecule?
Answer: The Activity was 5.8%.

Question: What about the inhibition (Homo sapiens [8]) of the same molecule?
Answer: Its inhibition is “Active”.

Question: And the Activity (SMMC-7721 [9])?
Answer: Its Activity is 37.61%.

Question: What about the viability at 0.5 µM (SMMC-7721 [10]) of the same molecule?
Answer: Its viability at 0.5 µM is 86.2%.

Question: And the pIC50 (MCF7)?
Answer: The pIC50 was 5.82.

Question: What about the Activity (SMMC-7721 [11]) of the same molecule?
Answer: The Activity was 75.69%.

Question: And the Activity (SMMC-7721 [12])?
Answer: Its Activity is 12.93%.

Question: And the inhibition (Homo sapiens [13])?
Answer: The inhibition was “Active”.

Question: What about the pIC50 (A549) of the same molecule?
Answer: Its pIC50 is 5.46.

Question: What about the pIC50 (SMMC-7721 [14]) of the same molecule?
Answer: Its pIC50 is 6.70.

Question: What about the Activity (SMMC-7721 [15]) of the same molecule?
Answer: Its Activity is 0.1%.

Question: And the Activity (SMMC-7721 [16])?
Answer: Its Activity is 1.2%.

Question: And the Activity (SMMC-7721 [17])?
Answer: The Activity was 45.85%.

Question: What about the inhibition (Homo sapiens [18]) of the same molecule?
Answer: The inhibition was “Active”.

Question: And the viability at 2 µM (SMMC-7721 [19])?
Answer: The viability at 2 µM was 68.2%.

Question: What about the Activity (SMMC-7721 [20]) of the same molecule?
Answer: Its Activity is 13.7%.

Question: And the inhibition (SMMC-7721 [21])?
Answer: Its inhibition is “Dose-dependent effect”.

Question: And the Activity (SMMC-7721 [22])?
Answer: The Activity was 5.7%.

Question: What about the inhibition (SMMC-7721 [23]) of the same molecule?
Answer: The inhibition was “Dose-dependent effect”.

Question: What about the Activity (SMMC-7721 [24]) of the same molecule?
Answer: Its Activity is 3.97%.

Question: What about the inhibition (Homo sapiens [25]) of the same molecule?
Answer: Its inhibition is “Active”.

Question: What about the pIC50 (ECa-109 cell line) of the same molecule?
Answer: Its pIC50 is 5.57.

Question: And the Activity (SMMC-7721 [26])?
Answer: Its Activity is 54.97%.

Question: And the pIC50 (MGC-803)?
Answer: Its pIC50 is 6.22.

Question: What about the Activity (SMMC-7721 [27]) of the same molecule?
Answer: The Activity was 5.4%.

Question: What about the pIC50 (PC-3) of the same molecule?
Answer: Its pIC50 is 5.30.

Question: What about the Activity (SMMC-7721 [28]) of the same molecule?
Answer: The Activity was 26.8%.

Question: What about the Activity (SMMC-7721 [29]) of the same molecule?
Answer: Its Activity is 29.2%.
